Test results reported in patent publication US9526785B2, “Pharmaceuticals for oral delivery” (Enteris BioPharma, Inc., priority 2013, dated 2016).
Values joined by “and” are separate entries in the source; they are usually repeats but may differ in a detail not shown here. Identical values can stand only once. Like-named read-outs stand apart in the source and are kept apart here.

Experiment: Tigecycline plasma PK after IV bolus in dogs
Type: in vivo, Beagle dogs
Details: for concentration at 10 min / concentration at 15 min / concentration at 20 min / concentration at 5 min / concentration at 30 min / concentration at 40 min / concentration at 60 min / concentration at 90 min / concentration at 120 min / concentration at 360 min: intravenous, Tigecycline Plasma Concentration
Description: Adult beagle dogs weighing approximately 9 to 15 kg were used in the study. […] Room temperature was set to be maintained between approximately 20±5° C. Relative humidity was monitored but not controlled.
TEKLAD™ Certified Canine Diet was provided once daily in amounts (˜400 grams) appropriate for the size and age of the animals. Tap water was available ad libitum via automatic watering device or water bowls.
Doses are expressed in terms of free net tigecycline content. […] Oral dosing of enteric-coated capsules was accomplished by administering them to the back of the dog's mouth, followed by a chase of 5 mL water to ensure swallowing.
Water was provided ad libitum. […] Subsequently, each group of animals was dosed based on the protocol, i.e. either IV, or PO by capsule.
Minocycline (VWR international) was used as an internal standard. Sample processing/clean-up of plasma samples was carried out offline by protein precipitation with acidified acetonitrile using 0.5% trifluoroacetic acid (TFA).
The HPLC system consisted of Shimadzu SIL-HTc HPLC system equipped with dual Shimadzu LC-10ADvp isopumps, a Shimadzu CTO-10ASvp column temperature controller and a Shimadzu SPD-10Avp variable wavelength detector. […] Mobile phase A consisted of 23 mM phosphate buffer pH 2.5 with 4 mM 1-octanesulfonic acid, while mobile phase B consisting of 90% acetonitrile, 10% water, with 2 mM 1-octanesulfonic acid. […] The total runtime was 18 minutes per sample. The mobile phase flow rate was 1.2 mL/min. Detection was performed using the SPD-10Avp variable wavelength detector set at 350 nm, with a sensitivity of 0.001 aufs.
The samples were then centrifuged under refrigeration at 13 k rpm for 5 minutes. The supernatant was taken and the liquid removed to dryness under nitrogen in a turbovap. The dried extract was reconstituted in 60 μL of mobile phase A and the suspension was further centrifuged at 5 k rpm for 5 minutes to pellet any insoluble matter. The resulting supernatant was then injected onto the LC.
The unknown concentration in dog plasma samples was determined by interpolation of the peak area ratios of analyte:internal standard versus the ratio of their nominal concentrations into the regression line obtained from calibration standards spiked in pooled dog plasma. No regression weighting was used for the calculations. […] The calibration curve covered the range of 0.05 μg/mL to 5 μg/mL.
It should be noted however, that when the method was transferred to an older HPLC system (equipped with a Shimadzu SCT-10Avp system controller and SIL-10A autoinjector), the time program was further altered such that the gradient went to 38% mobile phase B to account to system design changes. All other parameters remained unchanged.
Tigecycline PK parameters for individual dogs were calculated using non-compartmental analysis with PK Functions for Microsoft Excel.

[1] = 1 mg IV in PBS (0.08 mg/kg), SC427, individual dogs

Structure (SMILES): CN(C)c1cc(NC(=O)CNC(C)(C)C)c(O)c2c1C[C@H]1C[C@H]3[C@H](N(C)C)C(O)=C(C(N)=O)C(=O)[C@@]3(O)C(O)=C1C2=O [Tigecycline]
- AUC(0-t) [1]: 61.40 ng·h/mL and 99.54 ng·h/mL
- Cmax [1]: 66.27 ng/mL and 85.18 ng/mL
- Tmax [1]: 5 min
- Tmax (1 mg IV in PBS (0.08 mg/kg), SC427, mean): 5 min
- Tmax (5 mg IV in PBS ([…]), SC431, individual dogs): 5 min
- Tmax (5 mg IV in PBS ([…]), SC431, mean): 5 min
- Tigecycline Plasma Concentration (5 min, 1 mg IV in PBS (0.08 mg/kg), SC427, individual dogs): 66.27 ng/mL and 85.18 ng/mL
- Tigecycline Plasma Concentration (10 min, 1 mg IV in PBS (0.08 mg/kg), SC427, individual dogs): 23.92 ng/mL and 33.00 ng/mL
- Tigecycline Plasma Concentration (15 min, 1 mg IV in PBS (0.08 mg/kg), SC427, individual dogs): 19.85 ng/mL and 20.60 ng/mL
- Tigecycline Plasma Concentration (20 min, 1 mg IV in PBS (0.08 mg/kg), SC427, individual dogs): 21.11 ng/mL and 29.60 ng/mL
- Tigecycline Plasma Concentration (30 min, 1 mg IV in PBS (0.08 mg/kg), SC427, individual dogs): 17.14 ng/mL and 13.86 ng/mL
- Tigecycline Plasma Concentration (40 min, 1 mg IV in PBS (0.08 mg/kg), SC427, individual dogs): 11.51 ng/mL and 21.58 ng/mL
- Tigecycline Plasma Concentration (60 min, 1 mg IV in PBS (0.08 mg/kg), SC427, individual dogs): 12.49 ng/mL and 14.50 ng/mL
- Tigecycline Plasma Concentration (90 min, 1 mg IV in PBS (0.08 mg/kg), SC427, individual dogs): 8.90 ng/mL and 13.98 ng/mL
- Tigecycline Plasma Concentration (120 min, 1 mg IV in PBS (0.08 mg/kg), SC427, individual dogs): 8.80 ng/mL and 12.96 ng/mL
- Tigecycline Plasma Concentration (360 min, 1 mg IV in PBS (0.08 mg/kg), SC427, individual dogs): 0.00 ng/mL (2×) and 3.45 ng/mL
- Cmax, Mean (IV bolus 1 mg (0.08 mg/kg), SC427): 79 ng/mL
- Tmax (IV, Study 1 (SC427), 1 mg (0.08 mg/kg), mean (% CV)): 5 (0) min
- concentration at 10 min (female, Beagle, dog, plasma, 1 mg, 10 min, 1 mg IV in PBS (0.08 mg/kg), SC427, individual dogs): 38.8 ng/mL
- concentration at 10 min (female, Beagle, dog, plasma, 1 mg, 10 min, 1 mg IV in PBS (0.08 mg/kg), SC427, mean): 31.9 ng/mL
- concentration at 15 min (female, Beagle, dog, plasma, 1 mg, 15 min, 1 mg IV in PBS (0.08 mg/kg), SC427, individual dogs): 26.5 ng/mL
- concentration at 15 min (female, Beagle, dog, plasma, 1 mg, 15 min, 1 mg IV in PBS (0.08 mg/kg), SC427, mean): 22.3 ng/mL
- concentration at 20 min (female, Beagle, dog, plasma, 1 mg, 20 min, 1 mg IV in PBS (0.08 mg/kg), SC427, individual dogs): 27.7 ng/mL
- concentration at 20 min (female, Beagle, dog, plasma, 1 mg, 20 min, 1 mg IV in PBS (0.08 mg/kg), SC427, mean): 26.1 ng/mL
- concentration at 5 min (female, beagle, dog, plasma, 1 mg, 5 min, 1 mg IV in PBS (0.08 mg/kg), SC427, individual dogs): 86 ng/mL
- concentration at 5 min (female, beagle, dog, plasma, 1 mg, 5 min, 1 mg IV in PBS (0.08 mg/kg), SC427, mean): 79.1 ng/mL
- concentration at 30 min (female, beagle, dog, plasma, 1 mg, 30 min, 1 mg IV in PBS (0.08 mg/kg), SC427, individual dogs): 17.6 ng/mL
- concentration at 30 min (female, beagle, dog, plasma, 1 mg, 30 min, 1 mg IV in PBS (0.08 mg/kg), SC427, mean): 16.2 ng/mL
- concentration at 40 min (female, beagle, dog, plasma, 1 mg, 40 min, 1 mg IV in PBS (0.08 mg/kg), SC427, individual dogs): 14.3 ng/mL
- concentration at 40 min (female, beagle, dog, plasma, 1 mg, 40 min, 1 mg IV in PBS (0.08 mg/kg), SC427, mean): 15.8 ng/mL
- concentration at 60 min (female, beagle, dog, plasma, 1 mg, 60 min, 1 mg IV in PBS (0.08 mg/kg), SC427, individual dogs): 13.5 ng/mL
- concentration at 60 min (female, beagle, dog, plasma, 1 mg, 60 min, 1 mg IV in PBS (0.08 mg/kg), SC427, mean): 13.5 ng/mL
- concentration at 90 min (female, beagle, dog, plasma, 1 mg, 90 min, 1 mg IV in PBS (0.08 mg/kg), SC427, individual dogs): 11.2 ng/mL
- concentration at 90 min (female, beagle, dog, plasma, 1 mg, 90 min, 1 mg IV in PBS (0.08 mg/kg), SC427, mean): 11.4 ng/mL
- concentration at 120 min (female, beagle, dog, plasma, 1 mg, 120 min, 1 mg IV in PBS (0.08 mg/kg), SC427, individual dogs): 11.6 ng/mL
- concentration at 120 min (female, beagle, dog, plasma, 1 mg, 120 min, 1 mg IV in PBS (0.08 mg/kg), SC427, mean): 11.1 ng/mL
- concentration at 360 min (female, beagle, dog, plasma, 1 mg, 360 min, 1 mg IV in PBS (0.08 mg/kg), SC427, mean): 1.15 ng/mL
- concentration at 5 min (female, beagle, dog, plasma, 5 mg, 5 min, 5 mg IV in PBS ([…]), SC431, individual dogs): 336 ng/mL
- concentration at 5 min (female, beagle, dog, plasma, 5 mg, 5 min, 5 mg IV in PBS ([…]), SC431, mean): 335 ng/mL
- concentration at 10 min (female, beagle, dog, plasma, 5 mg, 10 min, 5 mg IV in PBS ([…]), SC431, individual dogs): 198 ng/mL
- concentration at 10 min (female, beagle, dog, plasma, 5 mg, 10 min, 5 mg IV in PBS ([…]), SC431, mean): 163 ng/mL
- concentration at 15 min (female, beagle, dog, plasma, 5 mg, 15 min, 5 mg IV in PBS ([…]), SC431, individual dogs): 122 ng/mL
- concentration at 15 min (female, beagle, dog, plasma, 5 mg, 15 min, 5 mg IV in PBS ([…]), SC431, mean): 111 ng/mL
- concentration at 20 min (female, beagle, dog, plasma, 5 mg, 20 min, 5 mg IV in PBS ([…]), SC431, individual dogs): 117 ng/mL
- concentration at 20 min (female, beagle, dog, plasma, 5 mg, 20 min, 5 mg IV in PBS ([…]), SC431, mean): 94.4 ng/mL
- concentration at 30 min (female, beagle, dog, plasma, 5 mg, 30 min, 5 mg IV in PBS ([…]), SC431, mean): 76.2 ng/mL
- concentration at 40 min (female, beagle, dog, plasma, 5 mg, 40 min, 5 mg IV in PBS ([…]), SC431, individual dogs): 72 ng/mL
- concentration at 40 min (female, beagle, dog, plasma, 5 mg, 40 min, 5 mg IV in PBS ([…]), SC431, mean): 60.5 ng/mL
- concentration at 60 min (female, beagle, dog, plasma, 5 mg, 60 min, 5 mg IV in PBS ([…]), SC431, mean): 49.1 ng/mL
- concentration at 90 min (female, beagle, dog, plasma, 5 mg, 90 min, 5 mg IV in PBS ([…]), SC431, individual dogs): 59.9 ng/mL
- concentration at 90 min (female, beagle, dog, plasma, 5 mg, 90 min, 5 mg IV in PBS ([…]), SC431, mean): 47.4 ng/mL
- concentration at 120 min (female, beagle, dog, plasma, 5 mg, 120 min, 5 mg IV in PBS ([…]), SC431, mean): 42.3 ng/mL
- concentration at 360 min (female, beagle, dog, plasma, 5 mg, 360 min, 5 mg IV in PBS ([…]), SC431, mean): 16.5 ng/mL
- AUC(0-t) (female, beagle, dog, plasma, iv, 0.08 mg/kg, 1 mg IV in PBS (0.08 mg/kg), SC427, individual dogs, read-out: AUC(0-t)): 56.2 ng·h/mL
- Cmax (female, beagle, dog, plasma, iv, 0.08 mg/kg, 1 mg IV in PBS (0.08 mg/kg), SC427, individual dogs, read-out: Cmax): 86 ng/mL
- AUC(0-t) (female, beagle, dog, plasma, iv, 0.08 mg/kg, 1 mg IV in PBS (0.08 mg/kg), SC427, mean, read-out: AUC(0-t)): 72.4 ng·h/mL
- Cmax (female, beagle, dog, plasma, iv, 0.08 mg/kg, 1 mg IV in PBS (0.08 mg/kg), SC427, mean, read-out: Cmax): 79.1 ng/mL
- AUC(0-t) (female, beagle, dog, plasma, iv, 0.08 mg/kg, IV bolus 1 mg (0.08 mg/kg), SC427, read-out: AUC(0-t), mean): 72.4 ng·h/mL
- Cmax (female, beagle, dog, plasma, iv, 0.08 mg/kg, IV bolus 1 mg (0.08 mg/kg), SC427, read-out: Cmax, mean): 79.1 ng/mL
- AUC(0-t) (female, beagle, dog, plasma, iv, 0.08 mg/kg, IV, Study 1 (SC427), 1 mg (0.08 mg/kg), mean (% CV), read-out: AUC(0-t)): 72.4 ng·h/mL
- Cmax (female, beagle, dog, plasma, iv, 0.08 mg/kg, IV, Study 1 (SC427), 1 mg (0.08 mg/kg), mean (% CV), read-out: Cmax): 79.1 ng/mL
- Cmax (female, beagle, dog, plasma, iv, […], 5 mg IV in PBS ([…]), SC431, individual dogs, read-out: Cmax): 336 ng/mL
- AUC(0-t) (female, beagle, dog, plasma, iv, […], 5 mg IV in PBS ([…]), SC431, mean, read-out: AUC(0-t)): 411 ng·h/mL
- Cmax (female, beagle, dog, plasma, iv, […], 5 mg IV in PBS ([…]), SC431, mean, read-out: Cmax): 335 ng/mL
- AUC(0-t) (female, beagle, dog, plasma, iv, […], IV bolus 5 mg ([…]), SC431, read-out: AUC(0-t), mean): 411 ng·h/mL
- Cmax (female, beagle, dog, plasma, iv, […], IV bolus 5 mg ([…]), SC431, read-out: Cmax, mean): 335 ng/mL
- AUC(0-t) (female, beagle, dog, plasma, iv, […], IV, Study 2 (SC431), 5 mg ([…]), mean (% CV), read-out: AUC(0-t)): 411 ng·h/mL
- Cmax (female, beagle, dog, plasma, iv, […], IV, Study 2 (SC431), 5 mg ([…]), mean (% CV), read-out: Cmax): 335 ng/mL
- Tmax (female, beagle, dog, plasma, IV bolus 1 mg (0.08 mg/kg), SC427, read-out: Tmax, mean (converted)): 5 min
- Tmax (female, beagle, dog, plasma, IV bolus 5 mg (0.42 mg/kg), SC431, read-out: Tmax (converted)): 5 min
